Laboratory results as given in US6479513B2, “Anticancer compound and enantiomer separation method useful for synthesizing said compound” (Pfizer Inc., priority 2000, dated 2002).

Target: T1, human farnesyl transferase (FTase) (Homo sapiens, UniProt P49354+P49356)
T1 construct: comprising the cytosolic fraction of homogenized brain tissue; from tissue; host or cells: brain tissue, cytosolic fraction (crude FTase)
Assay: in vitro inhibition of human FTase, farnesyl transferase (3H) scintillation proximity assay
Format: biochemical
Text: The activity of the compounds of formula 1 and formula 2 as Ras farnesylation inhibitors may be determined by their ability, relative to a control, to inhibit Ras farnesyl transferase in vitro. An example of one such procedure is described below.
A crude preparation of human farnesyl transferase (FTase) comprising the cytosolic fraction of homogenized brain tissue is used for screening compounds in a 96-well assay format. […]
The assay used to measure in vitro inhibition of human FTase is a modification of the method described by Amersham LifeScience for using their Farnesyl transferase (3H) Scintillation Proximity Assay (SPA) kit (TRKQ 7010). FTase enzyme activity is determined in a volume of 100 μl containing 50 mM N-(2-hydroxy ethyl) piperazine-N-(2-ethane sulfonic acid) (HEPES), pH 7.5, 30 mM MgCl2, 20 mM KCl, 25 mM Na2HPO4, 5 mM dithiothreitol (DTT), 0.01% Triton X-100, 5% dimethyl sulfoxide (DMSO), […] of crude FTase, […] [3H]-famesyl pyrophosphate ([3H]-FPP; 36000 dpm/pmole, Amersham LifeScience), and 0.2 μM of biotinylated Ras peptide KTKCVIS (Bt-KTKCVIS) that is N-terminally biotinylated at its alpha amino group and was synthesized and purified by HPLC in house. […] The amount of radioactivity bound to the SPA beads is determined using a MicroBeta 1450 plate counter. […]

activity in inhibiting the enzyme farnesyl protein transferase, relative to the levorotatory isomer (compared with the levorotatory isomer, figures not given): greater activity
IC50 (crude FTase (cytosolic fraction of brain tissue), [3H]-FPP, Bt-KTKCVIS, 45 minute incubation at 37° C., read-out: IC50 value for inhibiting farnesylation of the biotinylated KTKCVIS-peptide): < 500 nM
SMILES: Cn1cncc1C(N)(c1ccc(Cl)nc1)c1ccc2c(c1)c(-c1cccc(Cl)c1)cc(=O)n2CC1CC1 (single isomer, unassigned; (+)) [Example 8, (+)-6-[Amino-(6-chloro-pyridin-3-yl)-(3-methyl-3H -imidazol-4-yl)-methyl]-4-(3-chloro-phenyl)-1-cyclopropylmethyl-1H-quinolin-2-one]
